SMILES strings stand for the structures.

This data set relates to C8166-45 cell line. Kind of data set: MTT Assay (cytotoxicity). It counts as cell-based, human. Particulars: C8166-45 cells, five days.
In the case of `CCN1c2ncc([C@@H]3O[C@@H]3c3ccccc3)cc2C(=O)N(C)c2ccc(Cl)nc21` (relative stereo) [Example 46, 2Chloro-5,11-dihydro-11-ethyl-5-methyl-8-(2-phenyloxiranyl)-6H-dipyrido[3,2-b:2',3'-e][1,4]diazepin-6-one], the “MTT Assay CC30” value was more than 30 µM.
For the compound `CCN1c2ncc(CCc3cc[n+]([O-])cc3)cc2C(=O)N(C)c2ccc(Cl)nc21` [Example 8, 2-Chloro-5,11-dihydro-11-ethyl-8-[2-(4-(N-oxopyridyl))ethyl]-5-methyl-6H-dipyrido[3,2-b:2',3'-e][1,4]diazepin-6-one], the “MTT Assay CC30” value is more than 256 µM.
For `CCN1c2ncc(CC(O)c3ccncc3)cc2C(=O)N(C)c2ccc(Cl)nc21` (stereo not drawn) [Example 9, 2-Chloro-5,11-dihydro-11-ethyl-8-[2-hydroxy-2-(pyrid-4yl)ethyl-]5methyl-6H-dipyridol[3,2-b:2',3'-e][1,4]diazepin-6-one] the value was 150 µM; for `CCN1c2ncc(CC(F)c3ccncc3)cc2C(=O)N(C)c2ccc(Cl)nc21` (stereo not drawn) [Example 11, 2-Chloro-5,11-dihydro-11-ethyl-8-[2-fluoro-2-(4-pyridyl)ethyl]-5-methyl-6H-dipyrido-[3,2-b:2',3'-e][1,4]diazepin-6-one], 150 µM; for `CCN1c2ncc(CC(=O)c3ccncc3)cc2C(=O)N(C)c2ccc(Cl)nc21` [Example 12, 2-Chloro-5,11-dihydro-11-ethyl-8-[2-oxo-2-(4-pyridyl)ethyl]-5-methyl-6H-dipyrido[3,2-b:2',3'-e][1,4]diazepin-6-one], 250 µM.
For `CCN1c2ncc(CC(O)c3cc[n+]([O-])cc3)cc2C(=O)N(C)c2ccc(Cl)nc21` (stereo not drawn) [Example 13, 2-Chloro-5,11-dihydro-11-ethyl-8-[2-hydroxy-2-(N-oxo-pyrid-4-yl)ethyl]-5-methyl-6H-dipyrido[3,2-b:2',3'-e][1,4]diazepin-6-one], the “MTT Assay CC30” value was more than 128 µM.
For `CCN1c2ncc(CCc3cccc(N)c3)cc2C(=O)N(C)c2ccc(Cl)nc21` [Example 22, 8-[2-(3-Aminophenyl)ethyl]-2-chloro-5,11-dihydro-11-ethyl-5-methyl-6H-dipyrido[3,2-b:2',3'-e][1,4]diazepin-6-one], the “MTT Assay CC30” value is 60 µM.
For `CCN1c2ncc(CCc3cccc(NC(N)=O)c3)cc2C(=O)N(C)c2ccc(Cl)nc21` [Example 26, 2Chloro-5,11-dihydro-11-ethyl-5-methyl-8-2-[(3-ureidophenyl)ethyl]-6H-dipyrido[3,2-b:2',3'-e][1,4]diazepin-6-one] the value was 35 µM.
As for `CCN1c2ncc(CCc3cccc4[nH]ccc34)cc2C(=O)N(C)c2cccnc21` [Example 29, 5,11-Dihydro-11-ethyl-5methyl-8-[2-(4-indolyl)ethyl]-6H-dipyrido[3,2-b:2',3'-e][1,4]diazepin-6-one], the “MTT Assay CC30” value is more than 60 µM.
In the case of `CN1C(=O)c2cc(CCc3ccncc3)cnc2N(C2CC2)c2nc(Cl)ccc21` [Example 37, 2Chloro-11-cyclopropyl-5,11-dihydro-5-methyl-8-[2-(pyrid-4-yl)ethyl]-6H-dipyrido[3,2-b:2',3'-e][1,4]diazepin-6-one], the “MTT Assay CC30” value was more than 60 µM.
For `CCN1c2ncc(CCc3ccncc3)cc2C(=O)N(C)c2ccc(F)nc21` [Example 38, 5,11-Dihydro-11-ethyl-2-fluoro-5-methyl-8-[2-(pyrid-4-yl)ethyl]-6H-dipyrido[3,2-b:2',3'-e][1,4]diazepin-6-one] the value was 150 to 175 µM; for `CCN1c2ncc(CC(O)c3ccncc3)cc2C(=O)N(C)c2ccc(F)nc21` (stereo not drawn) [Example 40, 5,11-Dihydro-11-ethyl-2-fluoro-8-[2-hydroxy-2-(pyrid-4-yl)ethyl]-5-methyl-6H-dipyrido[3,2-b:2',3'-e][1,4]diazepin-6-one], more than 20 µM.

Values taken from patent US5705499A, “8-arylalkyl- and 8-arylheteroalkyl-5,11-dihydro-6H-dipyrido[3,2-B:2',3'-e][1]diazepines and their use in the treatment of HIV-1 infection” (Boehringer Ingelheim Pharmaceuticals, Inc., priority 1996, dated 1998).
